Test systems include OVCAR-3; EKVX; MDA-MB-231; DU-145; SK-MEL-28; MDA-MB-435; SF-539; HL-60; U-251; OVCAR-8; SR; COLO 205; CAKI-1; SK-MEL-2; HCT-15; TK-10; UACC-62; NCI-H522; HT-29; A498.
Holding throughout (experiment): NCI-60 cell line screen, 48 h

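Cells were grown in 96-well plates and exposed to each compound for 48 hours at five concentrations; endpoints were interpolated linearly between bracketing concentrations, or set to the highest concentration if not reached. GI50 is the concentration that inhibits growth by half.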 Calls of active or inactive are those of the source. Cut-off read from the data, not from the text of the source: active = GI50 up to about 1.1 µM and inactive = higher.

For the compound `COC(=O)C(F)C(Br)C(=O)OC` (stereo not given), the GI50 with OVCAR-3 was 2110 nM (inactive); in the test on EKVX it was 2190 nM (inactive); in the test with MDA-MB-231 it was 14600 nM (inactive); in the test with DU-145 it was 9550 nM (inactive); in the test with SK-MEL-28 it was 18000 nM (inactive); in the test with MDA-MB-435, 8380 nM (inactive). In addition, the GI50 is 5480 nM (inactive) in the test with SF-539; 1950 nM (inactive) in the test with HL-60; 3050 nM (inactive) with U-251; 3630 nM (inactive) in the test with OVCAR-8; 1370 nM (inactive) with SR; 1670 nM (inactive) in the test on COLO 205. Moreover, the GI50 with CAKI-1 was 2350 nM (inactive); in the test on SK-MEL-2, 16100 nM (inactive); in the test with HCT-15 it was 1820 nM; with TK-10 it was 2380 nM (inactive); in the test on UACC-62 it was 15900 nM (inactive); with NCI-H522 it was 1430 nM (inactive). The results for the GI50 with HT-29 and in the test with A498 were 2570 nM (inactive) and 20900 nM (inactive), respectively.
In the case of `COc1cc2cc(C(=O)N3CC(CCl)c4ccc(NO)cc43)[nH]c2c(OC)c1OC` (stereo not given), the GI50 was 257 nM (active) with OVCAR-3; 350 nM (active) with EKVX; 254 nM (active) in the test on MDA-MB-231; 95.3 nM (active) in the test on DU-145; 245 nM (active) with SK-MEL-28; 216 nM (active) in the test on MDA-MB-435. Also, the GI50 is 353 nM (active) in the test with SF-539; 126 nM (active) with HL-60; 92.7 nM (active) in the test on U-251; 184 nM (active) in the test with OVCAR-8; 57.7 nM (active) with SR; 468 nM (active) with COLO 205. Moreover, the GI50 was 227 nM (active) in the test on CAKI-1; 126 nM (active) in the test on SK-MEL-2; 243 nM with HCT-15; 313 nM (active) in the test on TK-10; 99.1 nM (active) in the test on UACC-62; 67.1 nM (active) in the test on NCI-H522. Further, the results for the GI50 in the test on HT-29 and in the test on A498 were 64.6 nM (active) and 67.5 nM (active), respectively.
As for `Nc1ccn(C2OC(CO[PH](=O)OC3C(CO[PH](=O)OC4C(CO[PH](=O)OC5C(CO[PH](=O)OC6C(CO[PH](=O)OC7C(CO[PH](=O)OC8C(CO[PH](=O)OC9C(CO[PH](=O)OC%10C(CO[PH](=O)OC%11C(CO)OC(n%12ccc(N)nc%12=O)C%11(F)F)OC(n%11ccc(N)nc%11=O)C%10(F)F)OC(n%10ccc(N)nc%10=O)C9(F)F)OC(n9ccc(N)nc9=O)C8(F)F)OC(n8ccc(N)nc8=O)C7(F)F)OC(n7ccc(N)nc7=O)C6(F)F)OC(n6ccc(N)nc6=O)C5(F)F)OC(n5ccc(N)nc5=O)C4(F)F)OC(n4ccc(N)nc4=O)C3(F)F)C(O)C2(F)F)c(=O)n1` (stereo not given), the GI50 is 17100 nM (inactive) with OVCAR-3; 5460 nM (inactive) in the test on EKVX; 1400 nM (inactive) in the test on MDA-MB-231; 10.9 nM (active) in the test on DU-145; 594 nM (active) in the test on SK-MEL-28; 52.6 nM (active) in the test with MDA-MB-435. For the same compound, the GI50 with SF-539 was 11.2 nM (active); in the test with HL-60 it was 19.3 nM (active); in the test with U-251 it was 37.3 nM (active); in the test on OVCAR-8 it was 15.6 nM (active); in the test on SR, 18.3 nM (active); with COLO 205 it was 741 nM (active). The GI50 with CAKI-1 is 31.6 nM (active); in the test with SK-MEL-2, 2180 nM (inactive); in the test on HCT-15, 442 nM; in the test on TK-10, 3030 nM (inactive); with UACC-62, 46.6 nM (active); in the test on NCI-H522 it was 1430 nM (inactive). In addition, the values for the GI50 with HT-29 and in the test on A498 were 112 nM (active) and 114 nM (active), respectively.
As for `O=C1CSC(/C=C/c2ccccc2)N1c1nc2cc3sc(N4C(=O)CSC4/C=C/c4ccccc4)nc3cc2s1` (stereo not given), the GI50 was 38800 nM (inactive) in the test with OVCAR-3; 13200 nM (inactive) in the test on EKVX; 62200 nM (inactive) with MDA-MB-231; > 48900 nM (inactive) with DU-145; > 58700 nM (inactive) in the test with SK-MEL-28; > 65600 nM (inactive) in the test with MDA-MB-435. Besides, the GI50 was 2830 nM (inactive) with SF-539; 68100 nM (inactive) in the test with HL-60; 44600 nM (inactive) in the test with U-251; > 100000 nM (inactive) with OVCAR-8; 14600 nM (inactive) in the test on SR; 3660 nM (inactive) with COLO 205. For the same compound, the GI50 in the test with CAKI-1 is 53000 nM (inactive); with SK-MEL-2, 33600 nM (inactive); in the test on HCT-15, greater than 34100 nM; with TK-10, 37200 nM (inactive); with UACC-62, > 100000 nM (inactive); in the test with NCI-H522, 6970 nM (inactive). Also, the GI50 in the test on HT-29 is 18000 nM (inactive); in the test with A498, > 100000 nM (inactive).

These data come from ChEMBL document CHEMBL1201862, “PubChem BioAssay data set” (2004).
